Two compounds from US11124498B2, “Compositions and methods for modulating protease activity” (THE REGENTS OF THE UNIVERSITY OF CALIFORNIA, priority 2016, dated 2021) can be followed below.

SMILES strings stand for the structures. Residues, ends and D or L forms follow the SMILES beside them. *: point of attachment. Octanoyl = CCCCCCCC(=O)* A value given as a limit tells only on which side of the number the result lay.

In one assay the target is T1, cathepsin L (Homo sapiens, UniProt P07711).
T1 construct: purchased R&D Systems
In words: in vitro protease inhibition assay, cathepsin L. Particulars: z-FR-AMC substrate, MES buffer pH 5.5. It counts as biochemical. The procedure: (§1) Protease Inhibition Assays. Detailed information about synthesis of N-Boc-protected peptidyl aldehydes and their deprotection for protease inhibition activity tests are available in the Extended Experimental Procedures. For protease inhibition assays, all fluorescence measurements were made on a Biotek H4 instrument. Buffering reagents were purchased from Sigma-Aldrich and sterile-filtered prior to use. Compounds and substrates were diluted from DMSO stocks into water/DMSO such that final DMSO plate concentrations were below 5% during the reaction. All reactions were started by the addition of substrate to the enzyme/compound solutions (see also Extended Experimental Procedures).
Deprotection of Boc-protected dipeptide aldehyde compounds. All the deprotection experiments were performed in an anaerobic chamber. Trifluoroacetic acid (TFA) was added to the purified Boc-protected dipeptidyl aldehydes. 1 μL of the reaction was added to 100 μL 80% DMSO in ddH2O and a 0.5 μL portion of the solution was examined by an Agilent 6530 qTOF LC/MS. For preparing dipeptide aldehyde solution for protease inhibition assays, the deprotection reaction was left at 30° C. for 15 mins. Then ddH2O was added to quench the reaction and give a 2.5 mM peptidyl aldehydes in 1% TFA solution. Some side products like isobutylene and their corresponding imine and pyrazinone products have poor water solubility. […]

A further assay addresses T2, cathepsin S (Homo sapiens, UniProt P25774).
T2 construct: purchased R&D Systems
Nature of the assay: in vitro protease inhibition assay, cathepsin S. Type of assay: biochemical. As to conditions: z-FR-AMC substrate, MES buffer pH 5.5, read-out: activity against cathepsin S. The procedure:
as §1
Detailed procedures for protease inhibition assays. Enzymes: cathepsin L, cathepsin B, cathepsin C and cathepsin S were purchased from R&D Systems trypsin, chymotrypsin and calpain I were purchased from Sigma-Aldrich. Calpain I was also purchased from Abcam. Human 20s proteasome was purchased from Boston Biochem.
Substrates: z-FR-AMC, Boc-IEGR-AMC, Suc-ALPF-AMC and GR-AMC were purchased from Bachem. Suc-LLVY-AMC was purchased from Anaspec. Substrates were used without further purification.
Inhibitors: Carfilzomib was a generous gift from Onyx Pharmaceuticals and was used as a positive control in the proteasome inhibition assay. […]

The next assay deals with T3, cathepsin L (CTSL1) (Homo sapiens, UniProt P07711).
T3 construct: We treated membrane preparations of the human innate immune (monocytic) cell line THP-1 with the bgc35 product Phe-Phe-H; endogenous in cells; host or cells: THP-1 membrane fraction
Nature of the assay: competitive isoTOP-ABPP, blockade of IA-alkyne labeling, cathepsin L. As to conditions: THP-1 membranes, 250 nM Phe-Phe-H. Type of assay: binding. The source says:
(§2) The proteases we assayed were chosen based on literature precedent. To determine the target of the peptide aldehydes in an unbiased way, we applied a quantitative chemical proteomic method, termed isoTOP-ABPP (Weerapana et al. 2010, Backus et al., 2016) to measure the global interactions of a representative dipeptide aldehyde, bgc35 product Phe-Phe-H, with cysteine residues in the human cell lysates. We treated membrane preparations of the human innate immune (monocytic) cell line THP-1 with the bgc35 product Phe-Phe-H or vehicle, and then these samples were treated with a cysteine reactive iodoacetamide-alkyne (IA-alkyne) probe and conjugated to an isotopically differentiated (heavy or light, respectively) TEV protease-cleavable biotin tag using copper-catalyzed azide-alkyne cycloaddition (CuAAC or click) chemistry. Vehicle- and peptide-treated samples were then combined, enriched, subjected to sequential trypsin and TEV digests and evaluated by LC-MS/MS. Site-specific blockade of IA-alkyne labeling as measured by quantitation of heavy/light MS1 chromatographic peaks designates cysteine residues that are targeted by Phe-Phe-H (heavy/light ratios, or R values>5; line, FIG. 3D). […]

The next assay addresses T4, cathepsin Z (CTSZ) (Homo sapiens, UniProt Q9UBR2).
T4 construct: We treated membrane preparations of the human innate immune (monocytic) cell line THP-1 with the bgc35 product Phe-Phe-H; endogenous in cells; host or cells: THP-1 membrane fraction
In words: competitive isoTOP-ABPP, blockade of IA-alkyne labeling, cathepsin Z. It counts as binding.
Source text: as §2

The next assay addresses T5, cathepsin H (CTSH) (Homo sapiens, UniProt P09668).
T5 construct: We treated membrane preparations of the human innate immune (monocytic) cell line THP-1 with the bgc35 product Phe-Phe-H; endogenous in cells; host or cells: THP-1 membrane fraction
T5 sequence (P09668 98-335): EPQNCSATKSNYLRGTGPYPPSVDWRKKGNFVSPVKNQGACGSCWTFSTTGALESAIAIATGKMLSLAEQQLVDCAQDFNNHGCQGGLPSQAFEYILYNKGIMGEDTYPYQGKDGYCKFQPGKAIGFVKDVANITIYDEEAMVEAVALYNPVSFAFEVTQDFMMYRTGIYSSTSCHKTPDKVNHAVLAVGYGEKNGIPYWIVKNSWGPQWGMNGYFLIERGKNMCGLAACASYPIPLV
Nature of the assay: competitive isoTOP-ABPP, blockade of IA-alkyne labeling, cathepsin H. It counts as binding. Particulars: THP-1 membranes, 250 nM Phe-Phe-H.
Source text: as §2

In a further assay the target is T6, cathepsin B (CTSB) (Homo sapiens, UniProt P07858).
T6 construct: We treated membrane preparations of the human innate immune (monocytic) cell line THP-1 with the bgc35 product Phe-Phe-H; endogenous in cells; host or cells: THP-1 membrane fraction
Nature of the assay: competitive isoTOP-ABPP, blockade of IA-alkyne labeling, cathepsin B. As to conditions: THP-1 membranes, 250 nM Phe-Phe-H. It counts as binding.
Source text: as §2

A further assay concerns the target T7, cathepsin C (CTSC) (Homo sapiens, UniProt P53634).
T7 construct: endogenously expressed CTSC is post-translationally regulated; endogenous in cells; host or cells: THP-1 membrane fraction
Nature of the assay: competitive isoTOP-ABPP, blockade of IA-alkyne labeling, cathepsin C. It counts as binding.
Source text: as §2

Assay [1] relates to more than 3500 total quantified cysteines across three different human cell proteomes. In words: competitive isoTOP-ABPP, proteome-wide selectivity over non-cathepsin cysteines. Type of assay: binding. As to conditions: more than 3500 quantified cysteines, no additional targets.
Source text: as §2

Another assay addresses T8, cathepsin S (CTSS) (Homo sapiens, UniProt P25774).
T8 construct: We treated membrane preparations of the human innate immune (monocytic) cell line THP-1 with the bgc35 product Phe-Phe-H; endogenous in cells; host or cells: THP-1 membrane fraction
In words: competitive isoTOP-ABPP, blockade of IA-alkyne labeling, cathepsin S. Type of assay: binding.
Source text: as §2

[2] abbreviates: THP-1 and other human cell proteomes (Ramos, H1975), 25 μM Phe-Phe-H.
The mark [3] stands for this setting: THP-1 membranes, 250 nM Phe-Phe-H.

T8 sequence (P25774 115-331): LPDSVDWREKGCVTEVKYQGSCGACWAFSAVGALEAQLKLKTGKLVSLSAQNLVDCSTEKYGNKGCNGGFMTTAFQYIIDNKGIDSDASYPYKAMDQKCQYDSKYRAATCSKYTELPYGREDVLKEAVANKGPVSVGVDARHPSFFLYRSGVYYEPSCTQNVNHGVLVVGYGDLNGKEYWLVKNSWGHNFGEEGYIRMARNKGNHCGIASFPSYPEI
T7 sequence (P53634 25-463): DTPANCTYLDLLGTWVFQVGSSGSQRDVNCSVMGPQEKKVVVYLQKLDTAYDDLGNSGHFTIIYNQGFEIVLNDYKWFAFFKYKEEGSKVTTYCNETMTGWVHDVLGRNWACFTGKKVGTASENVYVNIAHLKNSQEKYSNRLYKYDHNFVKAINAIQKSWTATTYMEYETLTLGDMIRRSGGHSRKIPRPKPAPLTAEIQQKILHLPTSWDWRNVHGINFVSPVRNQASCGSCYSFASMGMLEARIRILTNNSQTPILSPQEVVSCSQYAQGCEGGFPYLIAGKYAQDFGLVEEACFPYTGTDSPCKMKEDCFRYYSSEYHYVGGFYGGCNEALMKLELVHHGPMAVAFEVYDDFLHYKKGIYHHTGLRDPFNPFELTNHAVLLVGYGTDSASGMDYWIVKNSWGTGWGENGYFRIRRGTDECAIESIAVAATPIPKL
T4 sequence (Q9UBR2 62-303): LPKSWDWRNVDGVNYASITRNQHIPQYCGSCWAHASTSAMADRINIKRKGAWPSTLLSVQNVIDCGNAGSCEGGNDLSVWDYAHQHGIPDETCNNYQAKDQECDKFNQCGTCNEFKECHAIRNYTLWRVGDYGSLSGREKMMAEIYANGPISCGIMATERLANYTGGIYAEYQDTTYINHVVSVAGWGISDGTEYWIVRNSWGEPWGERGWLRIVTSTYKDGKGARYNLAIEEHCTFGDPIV
T2 sequence (P25774 115-331): as the sequence (P25774 115-331) above
T3 sequence (P07711 114-333): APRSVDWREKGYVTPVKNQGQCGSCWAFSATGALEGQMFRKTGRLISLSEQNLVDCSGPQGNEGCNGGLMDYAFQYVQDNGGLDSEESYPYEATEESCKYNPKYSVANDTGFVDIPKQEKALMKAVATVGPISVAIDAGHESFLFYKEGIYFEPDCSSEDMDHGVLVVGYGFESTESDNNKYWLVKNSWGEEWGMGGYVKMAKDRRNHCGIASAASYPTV
T1 sequence (P07711 114-333): as above

As for `CCCCCCCC(=O)N[C@@H](CCSC)C(=O)N[C@H](C=O)Cc1ccccc1` [Compound 16, N-octanoyl-Met-Phe-H] (Octanoyl-Met-Phe-aldehyde), the “inhibitory activity (IC50) against cathepsin L” value against cathepsin L is reported as “undetectable activity”. Moreover, the IC50 on cathepsin S stood at 13 nM.

`N[C@@H](Cc1ccccc1)C(=O)N[C@H](C=O)Cc1ccccc1` [Phe-Phe-H] (H-Phe-Phe-aldehyde): the “heavy/light MS1 ratio (R value), CTSL1 catalytic cysteine Cys138” value on cathepsin L (CTSL1) was over 20. Moreover, the “heavy/light MS1 ratio (R value), CTSZ” value at cathepsin Z (CTSZ) (setting [2]) is over 5; on cathepsin Z (CTSZ) (setting [3]), under 2.0. The “heavy/light MS1 ratio (R value), CTSH” value on cathepsin H (CTSH) is under 2.0. At cathepsin B (CTSB), the “heavy/light MS1 ratio (R value), CTSB” value was under 2.0. Further, the “heavy/light MS1 ratio (R value), CTSC” value on cathepsin C (CTSC) (setting [2]) is reported as over 5. Further, on cathepsin C (CTSC) (setting [3]), the “heavy/light MS1 ratio (R value), CTSC catalytic cysteine Cys258” value is recorded as over 2.78. In addition, in assay [1], the “heavy/light MS1 ratio (R value), additional (non-cathepsin) cysteines” value is under 2.0. Besides, the “heavy/light MS1 ratio (R value), CTSS” value on cathepsin S (CTSS) (setting [2]) is over 5; on cathepsin S (CTSS) (setting [3]), under 2.0.
